Like-named read-outs stand apart in the source and are kept apart here.
Tests used:
[1] = tested on: vesicular stomatitis virus (VSV); format: cell-based, vesicular stomatitis virus; mouse L929 cells
anti-BSA IgG antibody = assay: Adjuvant activity (serum anti-BSA IgG by ELISA); format: in vivo, mouse (BALB/c); conditions: 100 μg compound with 100 μg BSA in FIA, s.c., days 0 and 28; day 5 after booster; BSA alone = 1.00
Description: In this test, male BALB/c mice (each group having 6 animals) were used. On the days 0 and 28, 100 μg of bovine serum albumin (BSA) containing 100 μg of the compound of the present invention on the comparative compound or no such a compound was subcutaneously injected into each animal in the form of a water-in-oil type emulsion in Freund's incomplete adjuvant (FIA). On the day 5 following the booster, the level of anti-BSA IgG antibody formed in the serum was determined by the ELISA method. […] [formula]

[2] = tested on: BALB/c mouse spleen cells; assay: Polyclonal B cell activation activity (ELISPOT); conditions: 72 hours
[3] = tested on: BALB/c mouse spleen cells; assay: Mitogenic activity (3H-thymidine incorporation into mouse spleen cells)
male C57BL mouse = assay: Galactosamine-loaded lethal toxicity test; format: in vivo; conditions: 16 mg D-galactosamine/HCl i.p., compound i.v., 24 hours
Description: The galactosamine-loaded lethal toxicity was determined by using the following experimental system.
16 mg of D-galactosamine/HCl was intraperitoneally administered to a male C57BL mouse aged 8 weeks. Immediately thereafter, the compound of the present invention was intravenously injected into the animal and the conditions were observed after 24 hours.

rabbits = assay: Pyrogenicity test; conditions: i.v., rabbit, feverish = rise of 0.6° C. or more
Description: In this test, rabbits were used and 5 ml/kg of the test compound diluted to a definite concentration with physiological saline was intravenously injected into each animal. Then the rectal temperature was measured. Rabbits showing an increase in the bodily temperature by 0.6° C. or more were referred to as feverish.

[4] = tested on: Tachypleus tridentatus lysate; conditions: Pregel reagent, gel formation
[5] = tested on: IL-1 receptor antagonist (IL-1ra); assay: IL-1 receptor antagonist (IL-1ra) production (ELISA), human peripheral blood monocytes; format: cell-based
male rabbit = assay: Local Shwartzman reaction; format: in vivo; conditions: 100 μg/site intradermal, elicitation with Salmonella minnesota LPS i.v.
Description: This test was carried out in the following manner. The test compound, which had been diluted to a definite concentration with 0.2 ml of physiological saline, was intradermally injected into a male rabbit. After 24 hours, 100 μg/ml/kg of Salmonella minnesota 9700 LPS-W (manufactured by Difco) was intravenously injected into the animal for elicitation. After 4 hours, intradermal hemorrhage was observed.

[6] = tested on: Moloney virus-induced lymphoma YAC-1; assay: NK (natural killer) activity of spleen cells from treated mice against YAC-1 (51Cr release); format: in vivo, mouse (BALB/c)
Description: This test was carried out in the following manner. […] On the day 14, the spleen cells of the animal were collected. To the prepared spleen cells (1×10^6 cells/0.1 ml), target cells (Moloney virus-inducedlymphoma YAC-1; 2×10^4 cells/ml) labeled with ^51 Cr were added followed by the incubation for 4 hours. […] After the completion of the incubation, 0.1 ml of the culture supernatant was collected and the amount (radiation dose) of ^51 Cr liberated due to the damage in the target cells was measured. Then the NK activity (%) was calculated by substituting each value in accordance with the following formula. NK Activity (%)={(Radioactivity of test group-Radioactivity of minimum free control group)(cpm)/(Radioactivity maximum free control group-Radioactivity of minimum free control group)(cpm)}

[7] = tested on: methylcholanthrene-induced fibrosarcoma (Meth A); assay: Antitumor activity (macrophage cytostatic activity on Meth A fibrosarcoma); format: cell-based, mouse (BALB/c)
Description: This test was effected by examining a cytostatic activity on methylcholanthrene-induced fibrosarcoma (Meth A). Namely, adherent cells (macrophages) were collected from spleen cells of a BALB/c mouse. […] Then the ^3 H-thymidine-uptake suppression ratio was calculated by substituting the obtained values in accordance with the following formula and the result was expressed as the cytostatic activity on macrophages.
Cytostatic Activity (%)={1-(Radioactivity of macrophages and target cells-Radioactivity of macrophages alone)(cpm)/(Radioactivity of target cells along)}×100

TNF-α = assay: Cytokine inducing activity: TNF-α (ELISA), human peripheral blood monocytes; format: cell-based; conditions: 24 hours
Description: (§1) The cytokine inducing activity was tested by using an ELISA system for assaying TNF-α (manufactured by Amersham Japan) and another ELISA system for assaying IL-1β (manufactured by Otsuka Pharmaceutical Co., Ltd.). […] Then the cytokines in the culture supernatant were assayed by the ELISA method.

IL-1β = assay: Cytokine inducing activity: IL-1β (ELISA), human peripheral blood monocytes; format: cell-based
Description: as §1

[8] = Mus musculus, read-out: Mitogen activity, Stimulation Index

CCCCCCCCCCCCCC(=O)OC(CCCCCCCCCCC)CC(=O)O[C@@H]1[C@@H](NC(=O)CC(CCCCCCCCCCC)OC(=O)CCCCCCCCCCC)[C@H](OC[C@H]2O[C@H](OP(=O)(O)O)[C@H](NC(=O)CC(O)CCCCCCCCCCC)[C@@H](OC(=O)CCCCCCCCCCCCC)[C@@H]2O)O[C@H](CO)[C@H]1OP(=O)(O)O (stereo partly drawn) [Comparative compound 506, 6-O-[2-deoxy-2-(3-dodecanoyloxytetradecanoylamino)-3-O-(3-tetra-decanoyloxytetradecanoyl)-4-O-phosphono-β-D-glucopyranosyl]-2-deoxy-2-(3-hydroxytetradecanoylamino)-3-O-tetradecanoyl-1-O-phosphono-α-D-glucopyranose, reference compound]
Antiviral activity (reciprocal of the dilution ratio to the 1 mg/ml sample wherein L929 cells survived at a ratio of 50%) [1]: 2.2
Adjuvant activity, Stimulation Index (anti-BSA IgG antibody): 1.99
Polyclonal B cell activation activity, Stimulation Index ([2]; 10 μg per 2.5×10^6 cells): 15.7
Polyclonal B cell activation activity, Stimulation Index ([2]; 100 μg per 2.5×10^6 cells): 20.7
Mitogen activity, Stimulation Index ([3]; 50 μg/ml): 6.28
Galactosamine-loaded lethal toxicity, LD50 (male C57BL mouse): 0.0079 µg
Pyrogenicity (rabbits; dose of 0.01 μg): showed pyrogenicity

CCCCCCCCCCCCCCCC(=O)OC(CCCCCCCCCCCC(C)C)CC(=O)NC1C(OCC2OC(OP(=O)(O)O)C(NC(=O)CC(O)CCCCCCCCCCCC(C)C)C(O)C2O)OC(CO)C(O)C1O (stereo not drawn) [Invention compound]
Limulus test, minimum effective dose relative to that of the synthetic lipid A 506 [4]: 1,000 times
Antiviral activity (reciprocal of the dilution ratio to the 1 mg/ml sample wherein L929 cells survived at a ratio of 50%) ([1]; VSV 100 TCID50/0.1 ml on L929 cells, 24 hours): 4.9
production of IL-1ra in the culture supernatant, compared with synthetic lipid A 506 [5]: in a larger amount than the synthetic lipid A 506 did
Adjuvant activity, Stimulation Index (anti-BSA IgG antibody): 2.48
Polyclonal B cell activation activity, Stimulation Index ([2]; 10 μg per 2.5×10^6 cells): 22.0
Polyclonal B cell activation activity, Stimulation Index ([2]; 100 μg per 2.5×10^6 cells): 30.3
fold induction at 5 µg/mL [3, 8]: 4.17
fold induction at 50 µg/mL [3, 8]: 7.46
Galactosamine-loaded lethal toxicity, LD50 (male C57BL mouse): > 10 µg
Local Shwartzman reaction, hemorrhage (male rabbit): no hemorrhage
NK activity ([6]; 100 μg i.v. on days 0 and 7, spleen cells collected day 14, BALB/c mouse, YAC-1 targets, 4 hours): 50.1%
NK activity, comparison with synthetic lipid A 506 ([6]; 100 μg i.v. on days 0 and 7, in words): comparable to the synthetic lipid A 506
inhibition at 10 µg/mL ([7]; 24 h, 10 μg/ml, Meth A with mouse macrophages): 58.6%
inhibition at 100 µg/mL ([7]; 24 h, 100 μg/ml, Meth A with mouse macrophages): 64%
Cytostatic activity, comparison with synthetic lipid A 506 ([7]; in words): comparable to that of the synthetic lipid A 506
activity of inducing the production of TNF-α (TNF-α): little activity
suppression of the production of IL-1β induced by LPS originating in Escherichia coli (IL-1β; added simultaneously, 50 times as much as LPS): suppressed the production of IL-1β
suppression of the production of IL-1β induced by compound 506 (IL-1β; added simultaneously, 50 times as much as synthetic lipid A 506): suppressed the production of IL-1β
activity of inducing the production of IL-1β (IL-1β; human peripheral blood monocytes, 24 hours): little activity
Pyrogenicity (rabbits; dose of 10 μg/kg): showed no pyrogenicity
